Activity calls are given as the source filed them. No cut-off for these calls is given here.
Test system: HeLa
Assay: Cytotoxicity against human HeLa cells after 48 hrs by Coulter counting analysis
Type: functional
Details: read-out: ED50 (the source's name)

| Structure (SMILES) | EC50 [µg/mL] |
| --- | --- |
| CCCCCCCC/C=C/CCCCCCCC(=O)OC[C@H]1O[C@@H]2[C@@H](Oc3nc(=N)ccn32)[C@@H]1OC(=O)CCCCCCC/C=C/CCCCCCCC.Cl | 1.4 |
| CC(=O)O[C@H]1[C@@H]2Oc3nc(=N)ccn3[C@@H]2O[C@@H]1COC(=O)C12C=CC(C)(CC1)CC2.Cl | 0.2 |
| CCCCCCCCC(=O)OC[C@H]1O[C@@H]2[C@@H](Oc3nc(=N)ccn32)[C@@H]1OC(=O)CCCCCCCC.Cl | 0.06 |
| CCCCCCCCCCCCCCCCCCCC(=O)OC[C@H]1O[C@@H]2[C@@H](Oc3nc(=N)ccn32)[C@@H]1OC(=O)CCCCCCCCCCCCCCCCCCC.Cl | 2.5 |

Test system: Vaccinia virus
Assay: Antiviral activity against Vaccinia virus IHD infected in African green monkey BGM cells after 6 days by plaque reduction assay
Type: functional
Details: Orthopoxvirus vaccinia, 144 h, read-out: ED50 (the source's name)

| Structure (SMILES) | EC50 [nM] |
| --- | --- |
| CCCCCCCC/C=C/CCCCCCCC(=O)OC[C@H]1O[C@@H]2[C@@H](Oc3nc(=N)ccn32)[C@@H]1OC(=O)CCCCCCC/C=C/CCCCCCCC.Cl | 4700 |
| CC(=O)O[C@H]1[C@@H]2Oc3nc(=N)ccn3[C@@H]2O[C@@H]1COC(=O)C12C=CC(C)(CC1)CC2.Cl | 400 |
| CCCCCCCCC(=O)OC[C@H]1O[C@@H]2[C@@H](Oc3nc(=N)ccn32)[C@@H]1OC(=O)CCCCCCCC.Cl | 320 |
| CCCCCCCCCCCCCCCCCCCC(=O)OC[C@H]1O[C@@H]2[C@@H](Oc3nc(=N)ccn32)[C@@H]1OC(=O)CCCCCCCCCCCCCCCCCCC.Cl | > 30000 |

Test system: Herpesviridae sp.
Assay: Antiviral activity against Herpes simplex virus HF infected in African green monkey BGM cells after 6 days by plaque reduction assay
Type: functional
Details: 144 h, read-out: ED50 (the source's name)

| Structure (SMILES) | EC50 [nM] |
| --- | --- |
| CCCCCCCC/C=C/CCCCCCCC(=O)OC[C@H]1O[C@@H]2[C@@H](Oc3nc(=N)ccn32)[C@@H]1OC(=O)CCCCCCC/C=C/CCCCCCCC.Cl | 9300 |
| CC(=O)O[C@H]1[C@@H]2Oc3nc(=N)ccn3[C@@H]2O[C@@H]1COC(=O)C12C=CC(C)(CC1)CC2.Cl | 1750 |
| CCCCCCCCC(=O)OC[C@H]1O[C@@H]2[C@@H](Oc3nc(=N)ccn32)[C@@H]1OC(=O)CCCCCCCC.Cl | 420 |
| CCCCCCCCCCCCCCCCCCCC(=O)OC[C@H]1O[C@@H]2[C@@H](Oc3nc(=N)ccn32)[C@@H]1OC(=O)CCCCCCCCCCCCCCCCCCC.Cl | > 30000 |

Test system: BGM
Assay: Antiviral activity against Poliovirus type 1 Mahoney infected in African green monkey BGM cells after 5 days by pulp disk diffusion assay
Type: functional, cell-based
Details: Human poliovirus 1 Mahoney

| Structure (SMILES) | Activity |
| --- | --- |
| CCCCCCCC/C=C/CCCCCCCC(=O)OC[C@H]1O[C@@H]2[C@@H](Oc3nc(=N)ccn32)[C@@H]1OC(=O)CCCCCCC/C=C/CCCCCCCC.Cl | inactive |
| CC(=O)O[C@H]1[C@@H]2Oc3nc(=N)ccn3[C@@H]2O[C@@H]1COC(=O)C12C=CC(C)(CC1)CC2.Cl | inactive |
| CCCCCCCCC(=O)OC[C@H]1O[C@@H]2[C@@H](Oc3nc(=N)ccn32)[C@@H]1OC(=O)CCCCCCCC.Cl | inactive |
| CCCCCCCCCCCCCCCCCCCC(=O)OC[C@H]1O[C@@H]2[C@@H](Oc3nc(=N)ccn32)[C@@H]1OC(=O)CCCCCCCCCCCCCCCCCCC.Cl | inactive |

Test system: Measles morbillivirus
Assay: Antiviral activity against Measles virus infected in African green monkey BGM cells after 5 days by pulp disk diffusion assay
Type: functional, organism-based
Details: not given

| Structure (SMILES) | Activity |
| --- | --- |
| CCCCCCCC/C=C/CCCCCCCC(=O)OC[C@H]1O[C@@H]2[C@@H](Oc3nc(=N)ccn32)[C@@H]1OC(=O)CCCCCCC/C=C/CCCCCCCC.Cl | inactive |
| CC(=O)O[C@H]1[C@@H]2Oc3nc(=N)ccn3[C@@H]2O[C@@H]1COC(=O)C12C=CC(C)(CC1)CC2.Cl | inactive |
| CCCCCCCCC(=O)OC[C@H]1O[C@@H]2[C@@H](Oc3nc(=N)ccn32)[C@@H]1OC(=O)CCCCCCCC.Cl | inactive |
| CCCCCCCCCCCCCCCCCCCC(=O)OC[C@H]1O[C@@H]2[C@@H](Oc3nc(=N)ccn32)[C@@H]1OC(=O)CCCCCCCCCCCCCCCCCCC.Cl | inactive |

Test system: unidentified influenza virus
Assay: Antiviral activity against Influenza virus Ao/WNS infected in monkey LLC-MK2 cells after 5 days by pulp disk diffusion assay
Type: functional, organism-based
Details: not given

| Structure (SMILES) | Activity |
| --- | --- |
| CCCCCCCC/C=C/CCCCCCCC(=O)OC[C@H]1O[C@@H]2[C@@H](Oc3nc(=N)ccn32)[C@@H]1OC(=O)CCCCCCC/C=C/CCCCCCCC.Cl | inactive |
| CC(=O)O[C@H]1[C@@H]2Oc3nc(=N)ccn3[C@@H]2O[C@@H]1COC(=O)C12C=CC(C)(CC1)CC2.Cl | inactive |
| CCCCCCCCC(=O)OC[C@H]1O[C@@H]2[C@@H](Oc3nc(=N)ccn32)[C@@H]1OC(=O)CCCCCCCC.Cl | inactive |
| CCCCCCCCCCCCCCCCCCCC(=O)OC[C@H]1O[C@@H]2[C@@H](Oc3nc(=N)ccn32)[C@@H]1OC(=O)CCCCCCCCCCCCCCCCCCC.Cl | inactive |

Test system: L1210
Assay: Antitumor activity against mouse L1210 cells allografted in BDF1 mouse assessed as increase in life span at 50 mg/kg, ip administered 24 hrs post-implantation measured up to 30 days relative to control
Type: functional
Details: route intraperitoneal

| Structure (SMILES) | ILS at 50 mg/kg [%] |
| --- | --- |
| CCCCCCCC/C=C/CCCCCCCC(=O)OC[C@H]1O[C@@H]2[C@@H](Oc3nc(=N)ccn32)[C@@H]1OC(=O)CCCCCCC/C=C/CCCCCCCC.Cl | 114 |
| CCCCCCCCC(=O)OC[C@H]1O[C@@H]2[C@@H](Oc3nc(=N)ccn32)[C@@H]1OC(=O)CCCCCCCC.Cl | 14 |
| CCCCCCCCCCCCCCCCCCCC(=O)OC[C@H]1O[C@@H]2[C@@H](Oc3nc(=N)ccn32)[C@@H]1OC(=O)CCCCCCCCCCCCCCCCCCC.Cl | 8 |

Test system: L1210
Assay: Antitumor activity against mouse L1210 cells allografted in BDF1 mouse assessed as increase in life span at 200 mg/kg, ip administered 24 hrs post-implantation measured up to 30 days relative to control
Type: functional
Details: route intraperitoneal

| Structure (SMILES) | ILS at 200 mg/kg [%] |
| --- | --- |
| CCCCCCCC/C=C/CCCCCCCC(=O)OC[C@H]1O[C@@H]2[C@@H](Oc3nc(=N)ccn32)[C@@H]1OC(=O)CCCCCCC/C=C/CCCCCCCC.Cl | > 258 |
| CC(=O)O[C@H]1[C@@H]2Oc3nc(=N)ccn3[C@@H]2O[C@@H]1COC(=O)C12C=CC(C)(CC1)CC2.Cl | 20 |
| CCCCCCCCCCCCCCCCCCCC(=O)OC[C@H]1O[C@@H]2[C@@H](Oc3nc(=N)ccn32)[C@@H]1OC(=O)CCCCCCCCCCCCCCCCCCC.Cl | 31 |

Test system: L1210
Assay: Antitumor activity against mouse L1210 cells allografted in BDF1 mouse assessed as increase in life span at 500 mg/kg, ip administered 24 hrs post-implantation measured up to 30 days relative to control
Type: functional
Details: route intraperitoneal

| Structure (SMILES) | ILS at 500 mg/kg [%] |
| --- | --- |
| CCCCCCCC/C=C/CCCCCCCC(=O)OC[C@H]1O[C@@H]2[C@@H](Oc3nc(=N)ccn32)[C@@H]1OC(=O)CCCCCCC/C=C/CCCCCCCC.Cl | > 257 |

Test system: L1210
Assay: Antitumor activity against mouse L1210 cells allografted in BDF1 mouse assessed as increase in life span at 1000 mg/kg, ip administered 24 hrs post-implantation measured up to 30 days relative to control
Type: functional
Details: route intraperitoneal

| Structure (SMILES) | ILS at 1000 mg/kg [%] |
| --- | --- |
| CCCCCCCC/C=C/CCCCCCCC(=O)OC[C@H]1O[C@@H]2[C@@H](Oc3nc(=N)ccn32)[C@@H]1OC(=O)CCCCCCC/C=C/CCCCCCCC.Cl | 11 |
| CCCCCCCCCCCCCCCCCCCC(=O)OC[C@H]1O[C@@H]2[C@@H](Oc3nc(=N)ccn32)[C@@H]1OC(=O)CCCCCCCCCCCCCCCCCCC.Cl | 107 |

Test system: Mus musculus
Assay: Toxicity in BDF1 mouse allografted with mouse L1210 cells assessed as reduction in average life span at 200 mg/kg, ip administered 24 hrs post-implantation measured up to 30 days relative to control
Type: organism-based
Design: dose 200 mg/kg, route intraperitoneal; scale not given: the % may be the effect or the level left
Details: in vivo

| Structure (SMILES) | Activity [%] |
| --- | --- |
| CCCCCCCCC(=O)OC[C@H]1O[C@@H]2[C@@H](Oc3nc(=N)ccn32)[C@@H]1OC(=O)CCCCCCCC.Cl | 88 |

Test system: L1210
Assay: Antitumor activity against mouse L1210 cells allografted in BDF1 mouse assessed as survival at 50 mg/kg, ip administered 24 hrs post-implantation after 30 days
Type: functional, organism-based
Design: dose 50 mg/kg
Details: not given

| Structure (SMILES) | Activity |
| --- | --- |
| CCCCCCCC/C=C/CCCCCCCC(=O)OC[C@H]1O[C@@H]2[C@@H](Oc3nc(=N)ccn32)[C@@H]1OC(=O)CCCCCCC/C=C/CCCCCCCC.Cl | inactive |
| CCCCCCCCC(=O)OC[C@H]1O[C@@H]2[C@@H](Oc3nc(=N)ccn32)[C@@H]1OC(=O)CCCCCCCC.Cl | inactive |
| CCCCCCCCCCCCCCCCCCCC(=O)OC[C@H]1O[C@@H]2[C@@H](Oc3nc(=N)ccn32)[C@@H]1OC(=O)CCCCCCCCCCCCCCCCCCC.Cl | inactive |

Test system: L1210
Assay: Antitumor activity against mouse L1210 cells allografted in BDF1 mouse assessed as survival at 200 mg/kg, ip administered 24 hrs post-implantation after 30 days
Type: functional, organism-based
Design: dose 200 mg/kg
Details: not given

| Structure (SMILES) | Activity |
| --- | --- |
| CC(=O)O[C@H]1[C@@H]2Oc3nc(=N)ccn3[C@@H]2O[C@@H]1COC(=O)C12C=CC(C)(CC1)CC2.Cl | inactive |
| CCCCCCCCCCCCCCCCCCCC(=O)OC[C@H]1O[C@@H]2[C@@H](Oc3nc(=N)ccn32)[C@@H]1OC(=O)CCCCCCCCCCCCCCCCCCC.Cl | inactive |

Test system: L1210
Assay: Antitumor activity against mouse L1210 cells allografted in BDF1 mouse assessed as survival at 500 mg/kg, ip administered 24 hrs post-implantation after 30 days
Type: functional, organism-based
Design: dose 500 mg/kg
Details: not given

| Structure (SMILES) | Activity |
| --- | --- |
| CCCCCCCC/C=C/CCCCCCCC(=O)OC[C@H]1O[C@@H]2[C@@H](Oc3nc(=N)ccn32)[C@@H]1OC(=O)CCCCCCC/C=C/CCCCCCCC.Cl | Active |

Test system: L1210
Assay: Antitumor activity against mouse L1210 cells allografted in BDF1 mouse assessed as survival at 1000 mg/kg, ip administered 24 hrs post-implantation after 30 days
Type: functional, organism-based
Design: dose 1000 mg/kg
Details: not given

| Structure (SMILES) | Activity |
| --- | --- |
| CCCCCCCC/C=C/CCCCCCCC(=O)OC[C@H]1O[C@@H]2[C@@H](Oc3nc(=N)ccn32)[C@@H]1OC(=O)CCCCCCC/C=C/CCCCCCCC.Cl | inactive |
| CCCCCCCCCCCCCCCCCCCC(=O)OC[C@H]1O[C@@H]2[C@@H](Oc3nc(=N)ccn32)[C@@H]1OC(=O)CCCCCCCCCCCCCCCCCCC.Cl | inactive |

Test system: Mus musculus
Assay: Toxicity in BDF1 mouse allografted with mouse L1210 cells assessed as survival at 200 mg/kg, ip administered 24 hrs post-implantation after 30 days
Type: organism-based
Design: dose 200 mg/kg, route intraperitoneal
Details: in vivo, 720 h

| Structure (SMILES) | Activity |
| --- | --- |
| CCCCCCCCC(=O)OC[C@H]1O[C@@H]2[C@@H](Oc3nc(=N)ccn32)[C@@H]1OC(=O)CCCCCCCC.Cl | Toxic |

Test system: L1210
Assay: Antitumor activity against mouse L1210 cells allografted in po dosed BDF1 mouse administered 24 hrs post-implantation
Type: functional, organism-based
Details: not given

| Structure (SMILES) | Activity |
| --- | --- |
| CCCCCCCC/C=C/CCCCCCCC(=O)OC[C@H]1O[C@@H]2[C@@H](Oc3nc(=N)ccn32)[C@@H]1OC(=O)CCCCCCC/C=C/CCCCCCCC.Cl | inactive |
| CC(=O)O[C@H]1[C@@H]2Oc3nc(=N)ccn3[C@@H]2O[C@@H]1COC(=O)C12C=CC(C)(CC1)CC2.Cl | inactive |
| CCCCCCCCC(=O)OC[C@H]1O[C@@H]2[C@@H](Oc3nc(=N)ccn32)[C@@H]1OC(=O)CCCCCCCC.Cl | inactive |
| CCCCCCCCCCCCCCCCCCCC(=O)OC[C@H]1O[C@@H]2[C@@H](Oc3nc(=N)ccn32)[C@@H]1OC(=O)CCCCCCCCCCCCCCCCCCC.Cl | inactive |

Source: ChEMBL document CHEMBL3272098, “Reactions of 2-acyloxyisobutyryl halides with nucleosides. 7. Synthesis and biological evaluation of some 2,2'-anhydro-1(3',5'-di-O-acyl-beta-D-arabinofuranosyl)cytosine hydrochlorides” (J Med Chem, 1976)
